Measured values from PubChem BioAssay (NCI).
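All cell lines were grown in 96-well plates and treated with compound for 48 hours. The concentration for full growth arrest is given as TGI.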

Tests used:
Experiment in all cases: inhibition of tumour cell growth, NCI panel, 48 h
HCT-116 colon = test system: HCT-116 colon
HT29 colon = test system: HT29 colon
MALME-3M melanoma = test system: MALME-3M melanoma
MCF7 breast = test system: MCF7 breast
NCI-H226 lung = test system: NCI-H226 lung
OVCAR-3 ovarian = test system: OVCAR-3 ovarian
OVCAR-4 ovarian = test system: OVCAR-4 ovarian
SF-539 CNS = test system: SF-539 CNS
SNB-19 CNS = test system: SNB-19 CNS
UACC-62 melanoma = test system: UACC-62 melanoma
UO-31 renal = test system: UO-31 renal

SMILES | TGI (HCT-116 colon) | TGI (HT29 colon) | TGI (MALME-3M melanoma) | TGI (MCF7 breast) | TGI (NCI-H226 lung) | TGI (OVCAR-3 ovarian) | TGI (OVCAR-4 ovarian) | TGI (SF-539 CNS) | TGI (SNB-19 CNS) | TGI (UACC-62 melanoma) | TGI (UO-31 renal)
CCN(CC)C(=O)Cn1c(C)cc2ccccc21 | > 100 µM | > 100 µM | > 100 µM | > 100 µM | > 100 µM | > 100 µM | > 100 µM | > 100 µM | > 100 µM | > 100 µM | > 100 µM
COc1cccc(-c2ccc3c4c2O[C@H]2C(=O)CC[C@@]5(O)[C@@H](C3)N(CC3CC3)CC[C@]425)c1 | 33.2 µM | 24.6 µM | 36.4 µM | 31 µM | 26.8 µM | 27.6 µM | 31.4 µM | 29 µM | 42.2 µM | 32.7 µM | 28.3 µM
COc1ccc2ccccc2c1/C=C/C(=O)c1ccccc1 | 11 µM | 12.4 µM | 26.3 µM | 18.6 µM | 11.1 µM | 7.23 µM | 9.4 µM | 7.23 µM | 12.4 µM | 9.35 µM | 9.36 µM
O=C(NNC(=S)Nc1cccc(Cl)c1)c1cc(-c2ccccc2)nc2ccccc12 | 30.3 µM | 45.3 µM | 29.9 µM | 23 µM | 40.5 µM | 34.3 µM | 28.7 µM | 29.8 µM | 33.9 µM | 26.7 µM | 29.8 µM
COc1cc(/C=C2\C(=O)N(c3ccccc3)C(c3ccccc3)S2(=O)=O)cc(OC)c1OC (configuration not stated) | > 100 µM | 94.1 µM | > 100 µM | > 100 µM | > 100 µM | > 100 µM | > 100 µM | > 100 µM | > 100 µM | > 100 µM | > 100 µM
c1ccc2c(c1)ccn2CCc1c[nH]c2ccccc12 | > 10 µM | > 10 µM | > 10 µM | > 10 µM | > 10 µM | > 10 µM | > 10 µM | > 10 µM | > 10 µM | > 10 µM | > 10 µM
Cc1ccc(SCC(CF)OC(C)n2cnc3c(=O)[nH]c(N)nc32)cc1 (configuration not stated) | > 100 µM | > 100 µM | > 100 µM | > 100 µM | > 100 µM | > 100 µM | > 100 µM | > 100 µM | > 100 µM | > 100 µM | > 100 µM
COc1ccc(C(=C(Cl)c2ccccc2)c2ccc(OC)cc2)cc1 | > 100 µM | > 100 µM | > 100 µM | > 100 µM | > 100 µM | > 100 µM | > 100 µM | > 100 µM | > 100 µM | > 100 µM | > 100 µM
CCN(CC)CCNc1nc2ccc([N+](=O)[O-])cc2[n+]([O-])n1 | 49.6 µM | 52.1 µM | 4.28 µM | 9.86 µM | > 100 µM | > 100 µM | 26.5 µM | 54.2 µM | > 100 µM | 35 µM | > 100 µM
Cc1ccc([N+](=O)[O-])cc1S(=O)(=O)Nc1ccc(C2=NNC(c3ccccc3)C2)cc1 (configuration not stated) | 33.1 µM | > 100 µM | 46 µM | 43.7 µM | > 100 µM | 20.4 µM | 54.4 µM | 89.2 µM | > 100 µM | 24.3 µM | 71.5 µM
N=C(N)c1ccc(C(NC(=O)CNS(=O)(=O)c2ccc3ccccc3c2)P(=O)(Oc2ccccc2)Oc2ccccc2)cc1 (configuration not stated) | > 100 µM | > 100 µM | > 100 µM | > 100 µM | 38.8 µM | > 100 µM | > 100 µM | 71.3 µM | > 100 µM | > 100 µM | > 100 µM
COc1cc(/C=C2/C[C@H]3[C@@H]4CC=C5C[C@@H](O)CC[C@]5(C)[C@H]4CC[C@]3(C)NC2=O)cc(OC)c1OC | > 66.3 µM | > 80.7 µM | 32.8 µM | > 77.5 µM | > 58.5 µM | > 100 µM | > 86.5 µM | > 100 µM | > 84.7 µM | 75.4 µM | 29.8 µM
CC(=O)OCC12C(=O)C[C@@H](C)C3(CC(c4ccoc4)OC3=O)C1CCC(OC(C)=O)C21CO1 (some centres not stated) | > 100 µM | > 100 µM | > 100 µM | > 100 µM | > 100 µM | > 100 µM | > 100 µM | > 100 µM | > 100 µM | > 100 µM | > 100 µM
Cc1c(S(=O)(=O)/N=C(\NO)Nc2ccc(Cl)c(Cl)c2)sc2ccc(Cl)cc12 | 37 µM | 29.3 µM | 42.6 µM | 86.8 µM | 43.8 µM | 31.1 µM | 32.3 µM | 45.1 µM | 45.1 µM | 37.2 µM | 37.8 µM
CON(C)C(=O)CNC(=O)OCC1c2ccccc2-c2ccccc21 | > 100 µM | > 100 µM | > 100 µM | > 100 µM | > 100 µM | > 100 µM | > 100 µM | > 100 µM | > 100 µM | > 100 µM | > 100 µM
O=C1CC(=Nc2ccc(Cl)cc2)C(c2ccccc2)N1c1ccccc1 (configuration not stated) | 65.1 µM | 37.4 µM | 90.8 µM | > 100 µM | 85.7 µM | 14.5 µM | > 100 µM | 94.8 µM | > 100 µM | 6.6 µM | > 100 µM
CC(=O)OC(/C=C/c1ccccc1)=C(OC(C)C)/C1=C(\c2ccccc2)SCCCSC1=O | > 100 µM | > 100 µM | > 100 µM | > 100 µM | > 100 µM | > 100 µM | > 100 µM | > 100 µM | > 100 µM | > 100 µM | > 100 µM
